PubChem BioAssay (NCI)
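Five concentrations, 48 hours, 96-well plates. TGI marks complete inhibition of growth.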

Columns and labels:
Experiment in all cases: growth of human tumour cells (NCI), 48 h
[1] = tested on: HCT-15 colon
[2] = tested on: BT-549 breast
[3] = tested on: OVCAR-4 ovarian
[4] = tested on: MDA-MB-231 breast
[5] = tested on: DU-145 prostate
[6] = tested on: M14 melanoma
[7] = tested on: EKVX NSCLC
[8] = tested on: A549 NSCLC
[9] = tested on: NCI/ADR-RES ovarian
[10] = tested on: CCRF-CEM leukemia
[11] = tested on: SF-295 CNS
[12] = tested on: MALME-3M melanoma
[13] = tested on: MDA-MB-435
[14] = tested on: ACHN renal
[15] = tested on: IGROV1 ovarian
[16] = tested on: HCC-2998 colon
[17] = tested on: SK-MEL-28 melanoma
[18] = tested on: SNB-19 CNS
[19] = tested on: UACC-257 melanoma
[20] = tested on: 786-0 renal
[21] = tested on: SK-OV-3 ovarian
[22] = tested on: A498 renal
[23] = tested on: T-47D breast
[24] = tested on: MDA-N
[25] = tested on: HCT-116 colon
[26] = tested on: SNB-75 CNS
[27] = tested on: RXF 393 renal
[28] = tested on: NCI-H460 lung
[29] = tested on: SF-268 CNS
[30] = tested on: NCI-H226 lung
[31] = tested on: LOX IMVI melanoma
[32] = tested on: OVCAR-5 ovarian
[33] = tested on: COLO 205 colon
[34] = tested on: SR leukemia
[35] = tested on: MCF7 breast
[36] = tested on: HS 578T breast
[37] = tested on: CAKI-1 renal
[38] = tested on: SW-620 colon
[39] = tested on: UACC-62 melanoma
[40] = tested on: OVCAR-8 ovarian
[41] = tested on: NCI-H23 lung
[42] = tested on: U251 CNS
[43] = tested on: KM12 colon
[44] = tested on: SN12C renal
[45] = tested on: PC-3 prostate
[46] = tested on: NCI-H522 lung
[47] = tested on: HOP-62 NSCLC
[48] = tested on: SK-MEL-2 melanoma
[49] = tested on: UO-31 renal
[50] = tested on: TK-10 renal
[51] = tested on: SK-MEL-5 melanoma
[52] = tested on: K-562 leukemia
[53] = tested on: HL-60(TB) leukemia
[54] = tested on: OVCAR-3 ovarian
[55] = tested on: HT29 colon
[56] = tested on: HOP-92 NSCLC
[57] = tested on: RPMI-8226 leukemia
[58] = tested on: SF-539 CNS
[59] = tested on: MOLT-4 leukemia

Measured: TGI

O=P(O)(O)c1ccccc1 (tested in a mixture with another compound)
not listed: [58] | [59]
> 100 µM: all other assays above

CC(C)(C)c1ccc(-c2nc3ccc([N+](=O)[O-])cc3c(=O)o2)cc1
74.9 µM: [51]
81.2 µM: [19] | [25]
72.5 µM: [45]
79.3 µM: [39]
33 µM: [16]
43.4 µM: [42]
66 µM: [4]
93.8 µM: [49]
69.9 µM: [43]
73.9 µM: [22]
83.9 µM: [40]
96.7 µM: [27]
75 µM: [12]
73.4 µM: [1]
58.2 µM: [10]
97.1 µM: [17]
43.9 µM: [58]
76.9 µM: [2]
40.7 µM: [46]
76.4 µM: [11]
75.2 µM: [3]
89.2 µM: [35]
69.4 µM: [55]
47 µM: [48]
71.3 µM: [52]
71.9 µM: [33]
29.9 µM: [31]
80.8 µM: [36]
78.7 µM: [41]
77 µM: [13]
66.1 µM: [26]
55.2 µM: [56]
60.9 µM: [47]
68.7 µM: [34]
79.8 µM: [9]
95.7 µM: [21]
46.4 µM: [59]
90.5 µM: [14]
65.6 µM: [53]
81.1 µM: [54]
not listed: [30]
> 100 µM: all other assays above

O=[N+]([O-])c1ccc(C2=NOC(c3ccccc3F)N2C23CC4CC(CC(C4)C2)C3)cc1 (configuration not stated)
not listed: [18] | [27]
> 100 µM: all other assays above

CCCCn1c(C)c(C(=O)OCC)s/c1=N/Nc1nc2ccccc2nc1-c1ccccc1
60.3 µM: [36]
94.1 µM: [5]
83.5 µM: [47]
not listed: [12] | [29] | [43] | [49]
> 100 µM: all other assays above

CC1(C)C(=O)C(C)(C)C12SSC1(S2)C(C)(C)C(=O)C1(C)C
21.1 µM: [53]
not listed: [10] | [27] | [46]
> 100 µM: all other assays above

O=C1Nc2cccc(Cl)c2/C1=C\c1c(Cl)nc2sccn12
30.2 µM: [48]
40.3 µM: [4]
39.7 µM: [18]
66.3 µM: [41]
26.3 µM: [26]
21.5 µM: [42]
31 µM: [21]
29.6 µM: [27]
74.9 µM: [2]
33.8 µM: [47]
57.5 µM: [36]
18.8 µM: [58]
24.6 µM: [20] | [50]
29.4 µM: [14]
46.2 µM: [56]
52.5 µM: [29]
not listed: [3] | [30]
> 100 µM: all other assays above

O=P(Oc1ccccc1)(Oc1ccccc1)Oc1c[nH]c2ccccc12
38.8 µM: [25]
18 µM: [9]
23.9 µM: [26]
25.3 µM: [35]
39.1 µM: [54]
26.6 µM: [17]
44.1 µM: [53]
28.8 µM: [1]
28.3 µM: [13] | [50]
20.2 µM: [48]
1.5 µM: [10]
26.7 µM: [28]
21.8 µM: [19]
49.9 µM: [31]
36.5 µM: [52]
1.54 µM: [57]
46.6 µM: [59]
29.2 µM: [27]
31.9 µM: [42]
17.9 µM: [16]
37.5 µM: [12]
7.15 µM: [56]
19.7 µM: [49]
31 µM: [8]
23.4 µM: [37]
36 µM: [38]
13.9 µM: [33]
31.3 µM: [4] | [30]
33.1 µM: [20]
20.7 µM: [15]
40.8 µM: [36]
26 µM: [44]
27.7 µM: [18]
47.5 µM: [40]
4.56 µM: [32]
34.4 µM: [2]
24 µM: [58]
52.9 µM: [23]
25.8 µM: [41]
24.3 µM: [24] | [29]
22 µM: [39] | [55]
14.5 µM: [3]
18.3 µM: [21]
0.907 µM: [7]
> 100 µM: [5] | [34] | [43]
24.8 µM: [51]
29.1 µM: [22]
8.26 µM: [45]
26.8 µM: [6]
36.3 µM: [47]
13.1 µM: [11]
